In paper PMC11938014, “Development and Application of Small Molecule–Peptide Conjugates as Cathepsin K-Specific Covalent Irreversible Inhibitors in Human Osteoclast and Lung Cancer” (JACS Au, 2025):

Experiments:
Assay type in all cases: cell-based
human osteoclasts = assay: Osteoclast differentiation assay on plastic (TRAP); settings: osteoclasts grown on plastic, 7 days
Protocol: To assess osteoclast differentiation, 7.5 × 10^4 cells from PBMCs, cells preincubated with M-CSF, were cultured in 96-well plates. After 3 days, medium was replaced with differentiation medium (αMEM; M8042 sigma, 10% FBS, 5% Penstrep and L-Glu, BI) supplemented with 25 ng/mL M-CSF and 25 ng/mL RANKL (R&D systems, 390-TN) and different inhibitors: GD20 (1 or 5 μM), ODN (1 or 5 μM), or vehicle. The differentiation medium was changed after 2 and 5 days. Cells were fixed on the 7th day with 4% PFA for 10 min at room temperature, they were washed three times with PBS, and then stained using a TRAP staining kit (Sigma-Aldrich, 387A-1KT) according to the manufacturer’s protocol with additional staining of the nuclei with DAPI. Osteoclast parameters were obtained by analysis of three wells from each- treatment. […] The total osteoclast surface area was determined using ImageJ software by manually tracing individual osteoclasts perimeters.
Figure S7. Identification of fluorescent band identity. […] G els were scanned for fluorescence and then underwent immunoblotting with different cathepsin -specific antibodies . […]
Fluorescence Immunoblot s.ch. = single chain, […]
Quantification of the total number of osteoclasts, and c) osteoclast-cell area in each treatment […]
Figure S9. […] Cathepsin activity was detected by labeling intact osteoclast with GB123, a pan-cathepsin activity-based probe. […]

[1] = target: T1, endogenous cathepsin K in the nucleus of human osteoclast (Homo sapiens, UniProt P43235); assay: Fluorescence microscopy of nuclear CTSK inhibition (GD32 probe); settings: 3 μM, 2 h, then GD32 8 h
T1 construct: endogenous in cells; host or cells: primary human osteoclasts differentiated from blood monocytes with M-CSF and RANKL
T1 sequence (P43235 115-329): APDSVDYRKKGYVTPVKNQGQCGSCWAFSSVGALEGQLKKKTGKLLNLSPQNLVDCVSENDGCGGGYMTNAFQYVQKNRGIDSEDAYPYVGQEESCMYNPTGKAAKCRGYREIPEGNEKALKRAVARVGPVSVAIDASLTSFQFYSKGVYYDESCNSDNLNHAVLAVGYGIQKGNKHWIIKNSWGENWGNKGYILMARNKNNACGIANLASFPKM
Text: We have generated inhibitors that block nuclear CTSK activity for the first time. […] CTSK activity labeled by a specific fluorescence ABP, GD32, was detected in the nucleus and nucleoli of osteoclasts, as reported by Dey et al.[19] The CTSK nuclear signal was completely eliminated in the presence of the inhibitors (Figure 9). These inhibitors can facilitate studying CTSK nuclear activity.
Figure 9 Detection of inhibition of endogenous cathepsin K in the nucleus of human osteoclast by fluorescence microscopy. (a) Osteoclast cells were treated with GD20 or GD38 inhibitors [3 μM] or DMSO vehicle in culture medium for 2 h, followed by incubation with GD32 for 8 h, as shown in Figure 8a. Cells were then fixed and stained with DAPI (nucleus), and Z stack images were captured by confocal microscopy. The white arrows indicate the nucleus. […] Red fluorescence is CTSK activity labeled by the ABP (GD32) and blue fluorescence (DAPI). (b) Microscopy image analysis software Imaris 10.0.1 was used to produce a three-dimensional (3D) surface rendering image of a cell nucleus (transparent blue) and CTSK inside it (opaque red) on top of the original image (blue, DAPI; red, GD32). The thresholds for the surfaces were chosen to emphasize CTSK inside the nucleus. One nucleus for each treatment was chosen from pictures in (a). […]

[2] = target: T2, CTSK in U2-OS and U-87 MG cells (Homo sapiens, UniProt P43235); assay: Fluorescence microscopy of CTSK inhibition in cell lines (GD32 probe); settings: 3 μM, 2 h
T2 construct: endogenous in cells; host or cells: U2-OS and U-87 MG
T2 sequence (P43235 115-329): T1 sequence (P43235 115-329)
Protocol: (§1) We next corroborated CTSK-specific inhibition by fluorescence microscopy studies of OC. Human OC were grown on 8-well plates; the intact cells were treated with either of the CTSK inhibitors or with the vehicle and then with the CTSK-specific fluorescent ABP GD32.[19] The fluorescence microscopy pictures were acquired following cell fixation, which permitted imaging and evaluating CTSK activity and inhibition in cells. […] As the inhibitors are specific to CTSK, they could not block the fluorescence signals of GB123 associated with other cathepsins (B, L, S) (Figure 8b).
Figure 8 Detection of inhibition of endogenous cathepsin K in intact cells by fluorescence microscopy. Enriched human monocytes from peripheral blood mononuclear cells (PBMC) were isolated from healthy donors’ blood and were treated for 14 days with M-CSF and RANKL or M-CSF alone, as indicated. Osteoclast cells were treated with vehicle (DMSO) or indicated inhibitors [3 μM] in a culture medium for 2 h, followed by incubation with (a) GD32 (a specific CTSK ABP) for 8 h or (b) GB123 for 2 h. Similar to those described in panel (a), cultures of U2-OS cells (c) and U-87 MG cells (d) were grown in 8-well chambers. Cells were pretreated with either the DMSO or [3 μM] of indicated specific CTSK inhibitors for 2 h and then labeled by the addition of 1.25 μM GD32 to the culture medium for 24 h (U2-OS) or 2 h (U-87 MG). […]

[3] = target: T3, endogenous cathepsin K in human osteoclasts (Homo sapiens, UniProt P43235); assay: Fluorescence microscopy of CTSK inhibition in human osteoclasts; settings: human OC, 3 μM, 2 h; for fluorescence signal of pan-cathepsin probe GB123: then GB123 2 h; for CTSK activity labeled by GD32 probe: then GD32 8 h
T3 construct: endogenous in cells; host or cells: primary human osteoclasts differentiated from blood monocytes with M-CSF and RANKL
T3 sequence (P43235 115-329): T1 sequence (P43235 115-329)
Protocol: as §1
Figure 8 Detection of inhibition of endogenous cathepsin K in intact cells by fluorescence microscopy. Enriched human monocytes from peripheral blood mononuclear cells (PBMC) were isolated from healthy donors’ blood and were treated for 14 days with M-CSF and RANKL or M-CSF alone, as indicated. Osteoclast cells were treated with vehicle (DMSO) or indicated inhibitors [3 μM] in a culture medium for 2 h, followed by incubation with (a) GD32 (a specific CTSK ABP) for 8 h or (b) GB123 for 2 h. Similar to those described in panel (a), cultures of U2-OS cells (c) and U-87 MG cells (d) were grown in 8-well chambers. Cells were pretreated with either the DMSO or [3 μM] of indicated specific CTSK inhibitors for 2 h and then labeled by the addition of 1.25 μM GD32 to the culture medium for 24 h (U2-OS) or 2 h (U-87 MG). After fixation, cells were stained with 4′,6-diamidino-2-phenylindole (DAPI) (nucleus), and images were captured by confocal microscopy.
Cells were seeded in 8-well chambers and then treated with an inhibitor or vehicle for 2 h. Cells were then labeled with the indicated probes for the indicated times and then washed with PBS, fixed with cold methanol, and mounted with DAPI-Fluoromount-G (SouthernBiotech, 0100-20) before visualization by confocal microscopy. Zeiss Confocal LSM 980 Microscope with Zen software was used with Airyscan (Germany).

nuclear CTSK activity labeled by GD32 [1]	CTSK activity labeled by GD32 probe [2]	fluorescence signal of pan-cathepsin probe GB123 [3]	CTSK activity labeled by GD32 probe [3]	Structure (SMILES)	total osteoclast area (human osteoclasts)
block CTSK activity in the nucleolus	block CTSK activity	only a partial reduction	completely abolished CTSK activity	CC(C)C[C@H](N[C@@H](c1ccc(-c2ccc(S(C)(=O)=O)cc2)cc1)C(F)(F)F)C(=O)NCC(=O)COC(=O)[C@@H]1CCCN1C(=O)[C@H](CC(C)C)NC(=O)OCC1c2ccccc2-c2ccccc21 [GD20]	slightly decreased
block CTSK activity in the nucleolus	block CTSK activity	only a partial reduction	completely abolished CTSK activity	CC(C)C[C@H](N[C@@H](c1ccc(-c2ccc(S(C)(=O)=O)cc2)cc1)C(F)(F)F)C(=O)NCC(=O)COC(=O)[C@@H]1CCCN1C(=O)[C@H](CCC(N)=O)NC(=O)OCC1c2ccccc2-c2ccccc21 [GD38]	
